PubChem BioAssay AID250 (DTP/NCI, 2004)
Several values for one entry are separate records, joined by “and”; a condition that tells them apart may be missing. Equal values may be shown once. Inconclusive results and toxic doses are left out.

System: BDF1 mice, L1210 leukemia sc, survival T/C
Test: NCI In Vivo Anticancer Drug Screen. Data for tumor model L1210 Leukemia (subcutaneous) in B6D2F1 (BDF1) mice
Conditions: higher = longer survival
How it was run: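 Transplantable tumor-bearing mice; survival or tumor size recorded; result = T/C, treated vs vehicle control.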

[1] = endpoint: median survival time, dose: 5.0 mg/kg/injection, schedule: Q01DX Z (sc), vehicle: methylcellulose (MC)
[2] = endpoint: median survival time, dose: 8.4 mg/kg/injection, schedule: Q01DX Z (sc), vehicle: methylcellulose (MC)
[3] = endpoint: median survival time, dose: 14.0 mg/kg/injection, schedule: Q01DX Z (sc), vehicle: methylcellulose (MC)
[4] = endpoint: median survival time, dose: 23.0 mg/kg/injection, schedule: Q01DX Z (sc), vehicle: methylcellulose (MC)
[5] = endpoint: median survival time, dose: 39.0 mg/kg/injection, schedule: Q01DX Z (sc), vehicle: methylcellulose (MC)
[6] = endpoint: median survival time, dose: 65.0 mg/kg/injection, schedule: Q01DX Z (sc), vehicle: methylcellulose (MC)
[7] = endpoint: median survival time, dose: 108.0 mg/kg/injection, schedule: Q01DX Z (sc), vehicle: methylcellulose (MC)
[8] = endpoint: median survival time, dose: 14.0 mg/kg/injection, schedule: Q01DX Z (sc), vehicle: saline
[9] = endpoint: median survival time, dose: 23.0 mg/kg/injection, schedule: Q01DX Z (sc), vehicle: saline
[10] = endpoint: median survival time, dose: 39.0 mg/kg/injection, schedule: Q01DX Z (sc), vehicle: saline
[11] = endpoint: median survival time, dose: 65.0 mg/kg/injection, schedule: Q01DX Z (sc), vehicle: saline
[12] = endpoint: median survival time, dose: 108.0 mg/kg/injection, schedule: Q01DX Z (sc), vehicle: saline
[13] = endpoint: median survival time, dose: 180.0 mg/kg/injection, schedule: Q01DX Z (sc), vehicle: saline

## Nc1cc(=O)[nH][nH]1
endpoint: median survival time, dose: 300.0 mg/kg/injection, schedule: Q01DX Z (sc), vehicle: saline
  T/C: 100 % of control
endpoint: median survival time, dose: 500.0 mg/kg/injection, schedule: Q01DX Z (sc), vehicle: saline
  T/C: 105 % of control
endpoint: median survival time, dose: 833.0 mg/kg/injection, schedule: Q01DX Z (sc), vehicle: saline
  T/C: 90 % of control
endpoint: median survival time, dose: 1388.0 mg/kg/injection, schedule: Q01DX Z (sc), vehicle: saline
  T/C: 90 % of control

## Cc1c(O)ccc(=O)n1O
endpoint: median survival time, dose: 65.0 mg/kg/injection, schedule: Q01DX Z (sc), vehicle: carboxymethylcellulose (CMC)
  T/C: 100 % of control
endpoint: median survival time, dose: 108.0 mg/kg/injection, schedule: Q01DX Z (sc), vehicle: carboxymethylcellulose (CMC)
  T/C: 100 % of control
endpoint: median survival time, dose: 180.0 mg/kg/injection, schedule: Q01DX Z (sc), vehicle: carboxymethylcellulose (CMC)
  T/C: 100 % of control
endpoint: median survival time, dose: 300.0 mg/kg/injection, schedule: Q01DX Z (sc), vehicle: carboxymethylcellulose (CMC)
  T/C: 100 % of control
endpoint: median survival time, dose: 500.0 mg/kg/injection, schedule: Q01DX Z (sc), vehicle: carboxymethylcellulose (CMC)
  T/C: 100 % of control

## ClCCn1c2ccccc2c2ccccc21
[1]
  T/C: 100 % of control
[2]
  T/C: 100 % of control
[3]
  T/C: 100 % of control
[4]
  T/C: 100 % of control
[5]
  T/C: 100 % of control
[6]
  T/C: 100 % of control
[7]
  T/C: 100 % of control

## CCN(CC)CCCC(C)Nc1c2ccc(Cl)cc2nc2ccc(OC)cc12 (stereo not drawn)
endpoint: median survival time, dose: 23.0 mg/kg/injection, schedule: Q01DX Z (sc), vehicle: water
  T/C: 90 % of control
endpoint: median survival time, dose: 39.0 mg/kg/injection, schedule: Q01DX Z (sc), vehicle: water
  T/C: 100 % of control
endpoint: median survival time, dose: 65.0 mg/kg/injection, schedule: Q01DX Z (sc), vehicle: water
  T/C: 100 % of control
endpoint: median survival time, dose: 108.0 mg/kg/injection, schedule: Q01DX Z (sc), vehicle: water
  T/C: 95 % of control
endpoint: median survival time, dose: 180.0 mg/kg/injection, schedule: Q01DX Z (sc), vehicle: water
  T/C: 100 % of control
endpoint: median survival time, dose: 300.0 mg/kg/injection, schedule: Q01DX Z (sc), vehicle: water
  T/C: 100 % of control

## O=c1[nH]c(=O)n(C2CC(O)C(CO)O2)cc1I (stereo not drawn)
[8]
  T/C: 100 % of control
[9]
  T/C: 100 % of control
[10]
  T/C: 106 % of control
[11]
  T/C: 103 % of control
[12]
  T/C: 103 % of control
[13]
  T/C: 100 % of control

## CCC1=C(c2ccc(OC)cc2)CCC(C(=O)O)C1C (stereo not drawn)
endpoint: median survival time, dose: 14.0 mg/kg/injection, schedule: Q01DX Z (sc), vehicle: steriod suspending solution
  T/C: 105 % of control
endpoint: median survival time, dose: 23.0 mg/kg/injection, schedule: Q01DX Z (sc), vehicle: steriod suspending solution
  T/C: 100 % of control
endpoint: median survival time, dose: 39.0 mg/kg/injection, schedule: Q01DX Z (sc), vehicle: steriod suspending solution
  T/C: 105 % of control
endpoint: median survival time, dose: 65.0 mg/kg/injection, schedule: Q01DX Z (sc), vehicle: steriod suspending solution
  T/C: 100 % of control
endpoint: median survival time, dose: 108.0 mg/kg/injection, schedule: Q01DX Z (sc), vehicle: steriod suspending solution
  T/C: 100 % of control and 111 % of control
endpoint: median survival time, dose: 180.0 mg/kg/injection, schedule: Q01DX Z (sc), vehicle: steriod suspending solution
  T/C: 100 % of control and 105 % of control
endpoint: median survival time, dose: 300.0 mg/kg/injection, schedule: Q01DX Z (sc), vehicle: steriod suspending solution
  T/C: 100 % of control and 111 % of control
endpoint: median survival time, dose: 500.0 mg/kg/injection, schedule: Q01DX Z (sc), vehicle: steriod suspending solution
  T/C: 111 % of control
endpoint: median survival time, dose: 833.0 mg/kg/injection, schedule: Q01DX Z (sc), vehicle: steriod suspending solution
  T/C: 100 % of control

## S=P(N1CCOCC1)(N1CC1)N1CC1
[8]
  T/C: 96 % of control and 110 % of control (2×)
endpoint: median survival time, dose: 23.0 mg/kg/injection, schedule: Q## X Z (sc), vehicle: saline
  T/C: 120 % of control
endpoint: median survival time, dose: 39.0 mg/kg/injection, schedule: Q01DX001 (sc), vehicle: saline
  T/C: 120 % of control
[10]
  T/C: 150 % of control and 180 % of control
endpoint: median survival time, dose: 65.0 mg/kg/injection, schedule: Q01DX001 (sc), vehicle: saline
  T/C: 150 % of control
[11]
  T/C: 150 % of control
endpoint: median survival time, dose: 65.0 mg/kg/injection, schedule: Q## X Z (sc), vehicle: saline
  T/C: 170 % of control
[12]
  T/C: 104 % of control and 120 % of control
[13]
  T/C: 104 % of control and 120 % of control
endpoint: median survival time, dose: 500.0 mg/kg/injection, schedule: Q01DX001 (sc), vehicle: saline
  T/C: 115 % of control

## CC(=O)[C@@]1(O)CC[C@H]2[C@@H]3C[C@H](C)C4=CC(=O)C=C[C@]4(C)[C@@]3(F)[C@@H](O)C[C@@]21C
[5]
  T/C: 111 % of control
[6]
  T/C: 105 % of control
[7]
  T/C: 111 % of control
endpoint: median survival time, dose: 180.0 mg/kg/injection, schedule: Q01DX Z (sc), vehicle: methylcellulose (MC)
  T/C: 111 % of control
endpoint: median survival time, dose: 300.0 mg/kg/injection, schedule: Q01DX Z (sc), vehicle: methylcellulose (MC)
  T/C: 111 % of control
endpoint: median survival time, dose: 500.0 mg/kg/injection, schedule: Q01DX Z (sc), vehicle: methylcellulose (MC)
  T/C: 100 % of control

## COc1cc([C@@H]2c3cc4c(cc3[C@H](O)[C@H]3COC(=O)[C@H]23)OCO4)cc(OC)c1OC
[1]
  T/C: 109 % of control
[2]
  T/C: 109 % of control
[3]
  T/C: 104 % of control
[4]
  T/C: 109 % of control

## CN(Cc1cnc2nc(N)nc(N)c2n1)c1cccc(C(=O)NC(CCC(=O)O)C(=O)O)c1 (stereo not drawn)
endpoint: mean survival time, dose: 1.0 mg/kg/injection, schedule: Q01DX009 (ip), vehicle: sodium bicarbonate
  T/C: 111 % of control
endpoint: mean survival time, dose: 2.0 mg/kg/injection, schedule: Q01DX009 (ip), vehicle: sodium bicarbonate
  T/C: 107 % of control
endpoint: mean survival time, dose: 4.0 mg/kg/injection, schedule: Q01DX009 (ip), vehicle: sodium bicarbonate
  T/C: 111 % of control
endpoint: mean survival time, dose: 4.0 mg/kg/injection, schedule: Q04DX003 (ip), vehicle: sodium bicarbonate
  T/C: 113 % of control
endpoint: mean survival time, dose: 8.0 mg/kg/injection, schedule: Q01DX009 (ip), vehicle: sodium bicarbonate
  T/C: 111 % of control
endpoint: mean survival time, dose: 8.0 mg/kg/injection, schedule: Q04DX003 (ip), vehicle: sodium bicarbonate
  T/C: 111 % of control
endpoint: mean survival time, dose: 16.0 mg/kg/injection, schedule: Q01DX009 (ip), vehicle: sodium bicarbonate
  T/C: 114 % of control
endpoint: mean survival time, dose: 16.0 mg/kg/injection, schedule: Q04DX003 (ip), vehicle: sodium bicarbonate
  T/C: 108 % of control
endpoint: mean survival time, dose: 32.0 mg/kg/injection, schedule: Q04DX003 (ip), vehicle: sodium bicarbonate
  T/C: 108 % of control
endpoint: mean survival time, dose: 64.0 mg/kg/injection, schedule: Q04DX003 (ip), vehicle: sodium bicarbonate
  T/C: 119 % of control

## CCNc1nncs1
endpoint: median survival time, dose: 65.0 mg/kg/injection, schedule: Q01DX Z (sc), vehicle: other
  T/C: 120 % of control
endpoint: median survival time, dose: 180.0 mg/kg/injection, schedule: Q01DX Z (sc), vehicle: other
  T/C: 150 % of control
endpoint: median survival time, dose: 300.0 mg/kg/injection, schedule: Q01DX Z (sc), vehicle: other
  T/C: 175 % of control

## CC(=O)NC(CS)C(=O)O (stereo not drawn)
endpoint: median survival time, dose: 600.0 mg/kg/injection, schedule: Q01DX001 (ip), vehicle: saline
  T/C: 94 % of control and 97 % of control
endpoint: median survival time, dose: 600.0 mg/kg/injection, schedule: Q01DX015 (ip), vehicle: saline
  T/C: 94 % of control and 97 % of control
endpoint: median survival time, dose: 600.0 mg/kg/injection, schedule: Q07DX003 (ip), vehicle: saline
  T/C: 94 % of control and 97 % of control
endpoint: median survival time, dose: 1000.0 mg/kg/injection, schedule: Q01DX001 (ip), vehicle: saline
  T/C: 94 % of control and 96 % of control
endpoint: median survival time, dose: 1000.0 mg/kg/injection, schedule: Q01DX015 (ip), vehicle: saline
  T/C: 103 % of control and 105 % of control
endpoint: median survival time, dose: 1000.0 mg/kg/injection, schedule: Q07DX003 (ip), vehicle: saline
  T/C: 99 % of control and 100 % of control

## CN(N=O)C(N)=O
endpoint: median survival time, dose: 0.75 mg/kg/injection, schedule: Q01DX009 (ip), vehicle: saline
  T/C: 100 % of control
endpoint: median survival time, dose: 1.5 mg/kg/injection, schedule: Q01DX009 (ip), vehicle: saline
  T/C: 100 % of control
endpoint: median survival time, dose: 3.0 mg/kg/injection, schedule: Q01DX009 (ip), vehicle: saline
  T/C: 105 % of control
endpoint: median survival time, dose: 6.0 mg/kg/injection, schedule: Q01DX009 (ip), vehicle: saline
  T/C: 120 % of control
[8]
  T/C: 111 % of control
[9]
  T/C: 100 % of control and 111 % of control
endpoint: median survival time, dose: 31.1 mg/kg/injection, schedule: Q01DX Z (sc), vehicle: saline
  T/C: 122 % of control
[11]
  T/C: 155 % of control
endpoint: median survival time, dose: 86.4 mg/kg/injection, schedule: Q01DX Z (sc), vehicle: saline
  T/C: 118 % of control
[12]
  T/C: 118 % of control and 120 % of control
endpoint: median survival time, dose: 144.0 mg/kg/injection, schedule: Q01DX Z (sc), vehicle: saline
  T/C: 109 % of control
[13]
  T/C: 100 % of control and 120 % of control
